In patent publication US20240189283A1, “L-ERGOTHIONEINE-CONTAINING COMPOSITION” (NAGASE & CO., LTD., priority 2021, published 2024):
Where two headings read alike, the source gives them in different places.

Key:
[1] = system: mouse bone marrow-derived macrophages; details: cited from earlier work; for production of cytokines (IL-6, IL-12p40, IL-1β, IL-10): toll-like receptor ligand stimulation
OT-II CD4+ T cells = details: 30 mM EGT; co-culture with F4/80 macrophages; cited from earlier work
Escherichia coli = details: EGT at 5 mM and 50 mM; cited from earlier work
[2] = HPLC area of SRH, SRH dehydrated dimer and EGT before and 4 days after concentration (Reference Example); format: physicochemical; details: sample with 15 parts by mass SRH per 100 parts EGT, PDA 210 nm; for HPLC area, 4 days after concentration: concentrated at 30° C., left at room temperature 4 days
Description: In an SRH 0.108 w/w % aqueous solution (1 mL) was dissolved 7.1 mg of EGT (manufactured by Tetrahedron) to prepare a sample having 15 parts by mass of SRH with respect to 100 parts by mass of EGT.
For HPLC analysis, 100 μL of the sample was diluted 10 times with water. The remaining 900 μL was concentrated under reduced pressure using an evaporator at 30° C. After the mixture was left to stand at room temperature for 4 days, the mixture was dissolved in 0.9 mL of water. For HPLC analysis, 100 μL of the solution was diluted 10 times with water.
HPLC analysis was performed under the following conditions.
Column: YMC-Pack ODS-AQ S-5 μM, 12 nm, 250×4.6 mm I.D.
Flow rate: 0.5 mL/min, Temperature: 30° C.
Eluent: 0.1% aqueous formic acid solution
Retention time: SRH: around 6.6 minutes; SRH dehydrated dimer: around 7.5 minutes; EGT: around 8.7 minutes.

| SMILES | production of cytokines (IL-6, IL-12p40, IL-1β, IL-10) ([1]; 1 mM EGT) | production of cytokines (IL-6, IL-12p40, IL-1β, IL-10) ([1]; 10 mM EGT) | concentration that activates macrophages [1] | Th17 polarization of OT-II CD4+ T cells (OT-II CD4+ T cells) | growth of Escherichia coli (Escherichia coli) | HPLC area, before concentration [2] | HPLC area, 4 days after concentration [2] |
| --- | --- | --- | --- | --- | --- | --- | --- |
| C[N+](C)(C)[C@@H](Cc1c[nH]c(=S)[nH]1)C(=O)[O-] [EGT, N,N,N-trimethyl-L-2-thiohistidine] | not | promoted | ≥ 10 mM | promoted | suppresses the growth | 13959268 | 14131254 |
| N[C@@H](CCSC1O[C@H](CO)[C@@H](O)[C@H]1O)C(=O)O (stereo partly drawn) [SRH, S-ribosylhomocysteine] |  |  |  |  |  | 156690 | 108189 |
